In ChEMBL document CHEMBL1201862, “PubChem BioAssay data set” (2004):
Calls of active or inactive are those of the source.

Tests used:
Nonstructural protein 1 = Nonstructural protein 1 (Influenza A virus, UniProt Q194T2); format: functional, Influenza A virus (A/California/07/2009(H1N1))
Paired box protein Pax-8 = Paired box protein Pax-8 (Homo sapiens, UniProt Q06710); assay: inhibitors of PAX8-driven TPO luciferase reporter, dose response, RMG-I cells, cherry-pick (AID 687027); format: functional, cell-based;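 further: luciferase reporter driven by Pax8 target thyroperoxidase promoter measured by SteadyGlo luminescence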
Fatty acid synthase [1] = target: T1, Fatty acid synthase (Homo sapiens, UniProt P49327); assay: FAS thioesterase domain inhibitors, dose response, biochemical, endpoint fluorescence intensity, uHTS hits (AID 624327); format: functional;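 further: fluorescence from hydrolysis of an O-methyl fluorescein acyl ester substrate by the enzyme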
Fatty acid synthase [2] = target: T1, Fatty acid synthase; assay: FAS thioesterase domain inhibitors, dose response, biochemical, kinetic fluorescence intensity (AID 624326); format: functional;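 further: rate of fluorescence rise from hydrolysis of a fluorogenic O-methyl fluorescein ester substrate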
[3] = ZM109 Env clade C HIV-1 fusion inhibitors, dose response, HeLa effector, CEM target cells, luciferase, cherry-pick (AID 652058); format: functional, cell-based
[4] = inhibitors of HIV Env-driven cell fusion, dose response, cherry-pick (AID 652057); format: functional, cell-based
[5] = inhibitors of clade B AD8 Env fusion, dose response, cell-based, cherry-pick (AID 652062); format: functional;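 further: luciferase signal from cell-cell fusion driven by HIV-1 clade B AD8 Env; potency is for inhibitors of fusion seen as a drop in luminescence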
SN12K1 = assay: cells; format: functional; conditions: Homo sapiens
[6] = P. falciparum Dd2 growth inhibitors, dose response, SYBR Green, cherry-picked samples (AID 1159567); format: functional, cell-based
[7] = HepG2 cell cytotoxicity, dose response, cytotoxicity control, cherry-picked samples (AID 1159577); format: functional, cell-based
cells [8] = format: functional, cell-based
cells [9] = format: functional, cell-based; remark: listed apart in the source
[10] = THP-1 cell cytotoxicity, dose response, cytotoxicity control for non-replicating M. tuberculosis project (AID 489025); format: functional
[11] = Vero E6 cell cytotoxicity, dose response, cytotoxicity control for non-replicating M. tuberculosis project, secondary assay (AID 492998); format: functional, VeroE6; conditions: Vero C1008
[12] = target: T2, Microphthalmia-associated transcription factor (Homo sapiens, UniProt O75030); assay: TRPM1 promoter luciferase signal decrease, dose response, MITF inhibitor project, cell-based, SK-MEL-5, cherry-picked, set 3 (AID 493073); format: functional
T2 sequence (O75030 whole entry): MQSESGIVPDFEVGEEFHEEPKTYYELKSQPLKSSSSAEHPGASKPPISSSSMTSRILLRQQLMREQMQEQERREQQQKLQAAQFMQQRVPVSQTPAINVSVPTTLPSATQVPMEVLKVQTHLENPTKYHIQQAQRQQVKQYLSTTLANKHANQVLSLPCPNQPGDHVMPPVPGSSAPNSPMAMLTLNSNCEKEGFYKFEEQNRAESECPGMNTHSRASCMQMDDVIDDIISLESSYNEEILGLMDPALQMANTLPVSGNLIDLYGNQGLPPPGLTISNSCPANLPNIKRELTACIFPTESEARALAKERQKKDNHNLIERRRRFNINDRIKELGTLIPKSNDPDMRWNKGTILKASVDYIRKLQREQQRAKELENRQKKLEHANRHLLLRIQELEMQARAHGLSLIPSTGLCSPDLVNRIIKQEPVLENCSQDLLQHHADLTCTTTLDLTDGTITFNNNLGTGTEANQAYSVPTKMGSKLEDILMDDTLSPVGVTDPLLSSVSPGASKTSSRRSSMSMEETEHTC

cells [13] = format: functional
[14] = NIH-3T3 fibroblast cytotoxicity, dose response, cytotoxicity control, cell-based, fluorescence, Alamar Blue, secondary assay (AID 2327); format: functional;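 further: NIH-3T3 mouse fibroblasts cultured with fluconazole at 8 µg/mL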
[15] = inhibitors of firefly luciferase expression or activity, dose response, H4 neuroglioma cells, luminescence (AID 1990); format: functional, cell-based
[16] = Luminescence Cell-Based Dose Response HTS to Identify Inhibitors of 5'UTR Stem-Loop Driven Prion Protein mRNA Translation in H4 Neuroglioblastoma Cells. [Related pubchem assays: 1827 (Project Summary), 1813 (Primary HTS)]; format: functional
[17] = inhibitors of SNCA 5'UTR-driven reporter translation, confirmation, H4 neuroglioma cells, luminescence (AID 1988); format: functional, cell-based
[18] = C. albicans growth with fluconazole, confirmation, fluorescence, retest (AID 2467); format: functional, cell-based
[19] = inhibitors of intracellular T. cruzi replication, confirmation, NIH3T3 host cells, beta-gal luminescence (AID 2044); format: functional, cell-based;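 further: intracellular parasites grown in NIH/3T3 mouse fibroblasts as host cells; luminescent beta-galactosidase reporter signal from transgenic T. cruzi replicating inside host cells; inhibitors lower the luminescence signal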
[20] = growth suppression of PTEN-null colon cells, dose response, cell-based, HCT116 PTEN knockout (AID 1047); format: functional;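 further: HCT116 colon tumor cells with PTEN knocked out; cells exposed to compound for 60 hours before readout; potency for loss of cell viability measured by luminescence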
[21] = cytotoxicity toward NIH3T3 fibroblasts, dose response, counter-screen, cell-based, ATP luminescence, mouse fibroblasts (AID 2010); format: functional;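 further: cells exposed to compound for about 90 hours before reading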
[22] = growth suppression of beta-catenin-knockout colon cells, dose response, cell-based, HCT116, human colon tumor (AID 1045); format: functional;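 further: HCT116 colon tumor cells with beta catenin knocked out; cells exposed to compound for 60 hours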
[23] = target: T3, Replicative DNA helicase DnaB (Mycobacterium tuberculosis, UniProt P9WMR3); assay: DnaB intein splicing inhibitors, dose response, biochemical, cell-free fluorescence (AID 449749); format: functional
T3 sequence (P9WMR3 whole entry): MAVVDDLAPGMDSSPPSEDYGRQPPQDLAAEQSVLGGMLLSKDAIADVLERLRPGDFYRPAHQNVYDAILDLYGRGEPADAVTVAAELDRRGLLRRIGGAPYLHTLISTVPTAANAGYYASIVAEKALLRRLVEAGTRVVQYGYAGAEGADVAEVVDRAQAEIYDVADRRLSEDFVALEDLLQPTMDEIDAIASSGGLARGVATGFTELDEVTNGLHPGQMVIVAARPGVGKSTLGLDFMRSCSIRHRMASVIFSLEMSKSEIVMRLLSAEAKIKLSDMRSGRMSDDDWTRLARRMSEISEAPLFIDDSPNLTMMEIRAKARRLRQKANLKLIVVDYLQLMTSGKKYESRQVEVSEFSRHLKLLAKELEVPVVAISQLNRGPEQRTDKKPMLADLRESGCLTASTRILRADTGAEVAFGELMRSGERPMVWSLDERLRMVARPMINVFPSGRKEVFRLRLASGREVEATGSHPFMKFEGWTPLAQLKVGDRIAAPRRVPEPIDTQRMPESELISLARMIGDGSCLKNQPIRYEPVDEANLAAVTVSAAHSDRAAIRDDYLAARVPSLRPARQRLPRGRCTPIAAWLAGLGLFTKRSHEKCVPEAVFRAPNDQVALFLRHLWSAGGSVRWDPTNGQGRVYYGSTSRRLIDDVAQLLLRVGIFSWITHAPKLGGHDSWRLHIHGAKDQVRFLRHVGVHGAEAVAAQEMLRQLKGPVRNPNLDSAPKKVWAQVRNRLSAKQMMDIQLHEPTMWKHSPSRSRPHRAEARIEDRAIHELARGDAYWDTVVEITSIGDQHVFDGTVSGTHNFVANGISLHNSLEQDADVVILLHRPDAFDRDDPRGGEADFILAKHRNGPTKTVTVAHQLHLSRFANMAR

Protein RecA = target: T4, Protein RecA (Mycobacterium tuberculosis, UniProt P9WHJ3); assay: Fluorescence Cell-Free Homogeneous Dose Retest to Identify Inhibitors of RecA-Intein Splicing Activity. [Related pubchem assays (depositor defined):AID2097, AID2223, AID489010, AID492950]; format: functional
T4 sequence (P9WHJ3 whole entry): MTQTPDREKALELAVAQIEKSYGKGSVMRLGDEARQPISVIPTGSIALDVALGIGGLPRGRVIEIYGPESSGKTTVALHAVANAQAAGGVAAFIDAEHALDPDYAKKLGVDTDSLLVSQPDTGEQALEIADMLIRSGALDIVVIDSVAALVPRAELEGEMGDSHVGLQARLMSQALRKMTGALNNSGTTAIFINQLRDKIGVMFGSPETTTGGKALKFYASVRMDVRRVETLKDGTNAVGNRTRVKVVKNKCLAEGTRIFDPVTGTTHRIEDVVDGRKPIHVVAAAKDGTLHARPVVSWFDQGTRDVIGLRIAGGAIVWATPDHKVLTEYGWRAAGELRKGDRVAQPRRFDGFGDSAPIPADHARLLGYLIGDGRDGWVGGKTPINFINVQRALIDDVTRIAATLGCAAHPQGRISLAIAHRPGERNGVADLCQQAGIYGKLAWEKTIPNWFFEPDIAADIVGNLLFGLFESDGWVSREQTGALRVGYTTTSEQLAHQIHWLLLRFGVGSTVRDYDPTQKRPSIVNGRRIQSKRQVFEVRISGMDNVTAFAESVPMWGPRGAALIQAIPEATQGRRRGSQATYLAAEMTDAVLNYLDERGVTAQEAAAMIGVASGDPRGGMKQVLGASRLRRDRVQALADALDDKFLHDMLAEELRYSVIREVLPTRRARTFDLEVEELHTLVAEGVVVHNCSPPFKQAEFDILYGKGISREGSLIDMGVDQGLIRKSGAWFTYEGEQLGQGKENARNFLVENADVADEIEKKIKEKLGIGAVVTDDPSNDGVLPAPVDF

Nonstructural protein 1, sequence (Q194T2 whole entry): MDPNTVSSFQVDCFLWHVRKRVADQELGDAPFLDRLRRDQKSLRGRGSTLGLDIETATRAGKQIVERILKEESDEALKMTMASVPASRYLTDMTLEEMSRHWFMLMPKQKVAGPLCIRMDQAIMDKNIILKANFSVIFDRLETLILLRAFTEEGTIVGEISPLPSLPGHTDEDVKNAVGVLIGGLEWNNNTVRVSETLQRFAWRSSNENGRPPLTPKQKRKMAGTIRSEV
T1 sequence (P49327 whole entry, the tested form may be a part): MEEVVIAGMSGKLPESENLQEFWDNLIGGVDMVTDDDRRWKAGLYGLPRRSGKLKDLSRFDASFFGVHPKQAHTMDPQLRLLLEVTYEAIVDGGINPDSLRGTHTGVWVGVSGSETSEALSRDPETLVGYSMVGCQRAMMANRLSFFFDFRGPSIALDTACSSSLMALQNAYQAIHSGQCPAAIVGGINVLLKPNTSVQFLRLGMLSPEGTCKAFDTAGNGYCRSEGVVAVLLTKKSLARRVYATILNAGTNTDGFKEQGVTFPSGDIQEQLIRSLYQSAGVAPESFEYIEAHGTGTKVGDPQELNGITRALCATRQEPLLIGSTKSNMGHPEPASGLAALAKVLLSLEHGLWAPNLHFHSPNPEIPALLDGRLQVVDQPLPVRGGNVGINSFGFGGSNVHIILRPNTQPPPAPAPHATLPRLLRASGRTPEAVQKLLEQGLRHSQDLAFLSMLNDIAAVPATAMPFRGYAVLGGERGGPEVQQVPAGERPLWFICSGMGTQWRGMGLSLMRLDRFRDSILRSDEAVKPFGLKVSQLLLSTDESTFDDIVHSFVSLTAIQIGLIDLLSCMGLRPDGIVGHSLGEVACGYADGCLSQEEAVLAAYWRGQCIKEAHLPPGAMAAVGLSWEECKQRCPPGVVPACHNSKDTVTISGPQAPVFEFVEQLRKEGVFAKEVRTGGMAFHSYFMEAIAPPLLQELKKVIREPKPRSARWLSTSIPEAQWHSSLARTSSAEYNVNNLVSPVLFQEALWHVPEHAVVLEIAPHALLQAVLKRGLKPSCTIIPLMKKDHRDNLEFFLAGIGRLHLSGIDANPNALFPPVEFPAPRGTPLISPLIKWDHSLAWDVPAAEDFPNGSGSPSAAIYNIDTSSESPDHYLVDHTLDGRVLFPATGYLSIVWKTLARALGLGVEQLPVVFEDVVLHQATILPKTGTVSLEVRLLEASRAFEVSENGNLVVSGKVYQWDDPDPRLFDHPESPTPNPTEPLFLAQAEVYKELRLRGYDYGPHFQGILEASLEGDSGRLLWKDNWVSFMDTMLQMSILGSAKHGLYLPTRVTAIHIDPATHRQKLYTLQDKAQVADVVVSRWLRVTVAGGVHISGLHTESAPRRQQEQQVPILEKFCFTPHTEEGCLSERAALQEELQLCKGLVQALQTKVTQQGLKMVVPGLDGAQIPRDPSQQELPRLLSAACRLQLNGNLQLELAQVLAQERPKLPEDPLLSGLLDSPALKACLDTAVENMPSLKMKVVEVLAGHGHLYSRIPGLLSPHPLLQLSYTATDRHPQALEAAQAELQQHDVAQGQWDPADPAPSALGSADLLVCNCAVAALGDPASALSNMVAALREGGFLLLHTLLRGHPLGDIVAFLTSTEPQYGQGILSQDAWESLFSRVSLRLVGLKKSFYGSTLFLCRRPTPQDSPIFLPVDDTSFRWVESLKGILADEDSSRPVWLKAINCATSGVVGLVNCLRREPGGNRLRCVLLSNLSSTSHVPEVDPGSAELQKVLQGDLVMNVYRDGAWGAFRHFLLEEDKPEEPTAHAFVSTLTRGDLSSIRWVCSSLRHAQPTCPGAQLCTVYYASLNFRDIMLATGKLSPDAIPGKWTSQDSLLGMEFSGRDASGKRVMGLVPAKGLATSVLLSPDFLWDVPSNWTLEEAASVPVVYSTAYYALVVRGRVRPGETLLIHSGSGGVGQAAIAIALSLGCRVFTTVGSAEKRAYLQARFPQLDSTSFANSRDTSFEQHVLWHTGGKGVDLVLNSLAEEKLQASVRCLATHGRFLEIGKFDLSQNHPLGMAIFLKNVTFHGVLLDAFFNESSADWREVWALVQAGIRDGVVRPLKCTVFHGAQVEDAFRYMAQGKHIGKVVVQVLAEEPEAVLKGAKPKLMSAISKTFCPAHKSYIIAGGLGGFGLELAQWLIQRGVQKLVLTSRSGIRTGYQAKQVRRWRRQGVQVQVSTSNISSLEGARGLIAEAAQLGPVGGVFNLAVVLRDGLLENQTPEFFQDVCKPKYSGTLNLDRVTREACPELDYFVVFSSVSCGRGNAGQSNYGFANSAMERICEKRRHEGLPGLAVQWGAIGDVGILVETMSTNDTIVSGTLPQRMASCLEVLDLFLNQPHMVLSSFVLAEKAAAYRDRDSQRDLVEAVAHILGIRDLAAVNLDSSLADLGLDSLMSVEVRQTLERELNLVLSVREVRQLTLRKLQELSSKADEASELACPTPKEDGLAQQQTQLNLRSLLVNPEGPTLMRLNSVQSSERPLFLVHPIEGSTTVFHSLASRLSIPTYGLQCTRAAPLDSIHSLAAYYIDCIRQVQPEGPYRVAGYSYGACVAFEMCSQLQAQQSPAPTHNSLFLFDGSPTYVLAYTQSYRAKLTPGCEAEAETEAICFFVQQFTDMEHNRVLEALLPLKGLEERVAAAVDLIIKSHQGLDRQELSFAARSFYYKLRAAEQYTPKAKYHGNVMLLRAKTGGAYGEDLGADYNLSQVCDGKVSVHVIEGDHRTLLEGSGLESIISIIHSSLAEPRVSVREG
Paired box protein Pax-8, sequence (Q06710 whole entry, the tested form may be a part): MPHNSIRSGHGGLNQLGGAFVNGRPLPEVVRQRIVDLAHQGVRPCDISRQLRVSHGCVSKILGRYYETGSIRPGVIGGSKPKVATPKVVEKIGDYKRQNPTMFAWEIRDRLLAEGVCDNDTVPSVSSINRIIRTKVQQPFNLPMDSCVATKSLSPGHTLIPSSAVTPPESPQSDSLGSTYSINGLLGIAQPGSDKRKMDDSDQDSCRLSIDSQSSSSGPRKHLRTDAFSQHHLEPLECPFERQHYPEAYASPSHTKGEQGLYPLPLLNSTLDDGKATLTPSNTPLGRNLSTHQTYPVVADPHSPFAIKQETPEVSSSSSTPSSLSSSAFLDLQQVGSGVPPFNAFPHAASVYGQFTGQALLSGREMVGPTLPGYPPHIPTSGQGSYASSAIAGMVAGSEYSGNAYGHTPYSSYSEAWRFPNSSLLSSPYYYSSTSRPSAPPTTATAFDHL

O=C(NN=Cc1c(O)ccc2ccccc12)c1ccncc1
IC50 (Nonstructural protein 1): 11.9 µM (active)
AC50 (Paired box protein Pax-8): 1.17 µM (active)

O=C(COc1ccc(S(=O)(=O)N2CCCCC2)cc1)Nc1ccccc1F
IC50 (Fatty acid synthase [1]): 16 µM (active)
IC50 (Fatty acid synthase [2]): 17.2 µM (active)

C[C@@H]1CN([C@@H](C)CO)S(=O)(=O)c2ccc(-c3ccccc3)cc2O[C@H]1CN(C)S(C)(=O)=O
AC50 [3]: 44 µM (active)

COc1cccc(S(=O)(=O)N2CCC3(CC2)CN(C(=O)Nc2cccc(F)c2)[C@@H](CO)c2[nH]c4cc(OC)ccc4c23)c1
AC50 [4]: 6.21 µM (active)
AC50 [3]: 6.68 µM (active)
AC50 [5]: 8.03 µM (active)

Nc1ncnc2c1ncn2C1C(O)C=C(CO)C1O (centres undefined)
GI50 (SN12K1): > 625 µM (inactive)

N#C[C@H]1[C@H](c2ccc(C#Cc3ccccc3F)cc2)[C@@H](CO)N1C(=O)C1CCCC1
AC50 [6]: 4.27 µM (active)
AC50 [7]: > 39 µM (inactive)

COc1cccc2sc(N3CCN(C(=O)c4ccc([N+](=O)[O-])o4)CC3)nc12
EC50 (cells [8]): > 350 µM (not active)
EC50 (cells [9]): > 350 µM (not active)
CC50 [10]: 36.5 µM (active)
CC50 [11]: 18.9 µM (active)
AC50 [12]: 7.03 µM (active)
IC50 (cells [13]): < 0.1 µM (active)

CC(=O)N(Cc1ccc(F)cc1)C1=C(NCc2ccccc2)C(=O)c2ccccc2C1=O
EC50 [14]: 4.92 µM (inconclusive)
EC50 [15]: 8.34 µM (active)
EC50 [16]: > 120 µM (not active)
EC50 [17]: 8.2 µM (active)
EC50 [18]: 0.708 µM (active)
EC50 [19]: 0.317 µM (active)
EC50 [20]: 0.54 µM (active)
EC50 [21]: 7.47 µM (active)
EC50 [22]: 0.444 µM (active)
IC50 (Nonstructural protein 1): 35.3 µM (active)
AC50 [23]: 5.17 µM (active)
EC50 (Protein RecA): 0.776 µM (active)
